For 1 compound, IC50 results are on record in US20100216795A1, “TNIK INHIBITOR AND THE USE” (priority 2008, published 2010).

SMILES strings stand for the structures.

What all share (assay): Selectivity profiling, QuickScout TK Screening Panel
Assay type in all cases: biochemical

Experiment [1] concerns the target T1, LCK (Homo sapiens, UniProt P06239).
T1 construct: purchased Carna Biosciences
As to the method:
(§1) The inhibitory effects of Compound 1 against 20 tyrosine kinases and 30 serine/threonine kinases were investigated using QuickScout™ TK and STK Screening Panel (Carna Biosciences, Kobe Japan). […] The results reveal that Compound 1 inhibits TNIK_N more potently (IC50; 9 nM) than the other 50 kinases.

For experiment [2], the target named is T2, FLT3 (Homo sapiens, UniProt P36888).
T2 construct: purchased Carna Biosciences
How it is done:
as §1

Experiment [3] concerns the target T3, PYK2 (Homo sapiens, UniProt Q14289).
T3 construct: purchased Carna Biosciences
As to the method: as §1

In experiment [4] the target is T4, TIE2 (Homo sapiens, UniProt Q02763).
T4 construct: purchased Carna Biosciences
As to the method: as §1

Experiment [5] deals with T5, SYK (Homo sapiens, UniProt P43405).
T5 construct: purchased Carna Biosciences
As to the method:
as §1

For experiment [6], the target named is T6, ITK (Homo sapiens, UniProt Q08881).
T6 construct: purchased Carna Biosciences
T6 sequence (Q08881 whole entry): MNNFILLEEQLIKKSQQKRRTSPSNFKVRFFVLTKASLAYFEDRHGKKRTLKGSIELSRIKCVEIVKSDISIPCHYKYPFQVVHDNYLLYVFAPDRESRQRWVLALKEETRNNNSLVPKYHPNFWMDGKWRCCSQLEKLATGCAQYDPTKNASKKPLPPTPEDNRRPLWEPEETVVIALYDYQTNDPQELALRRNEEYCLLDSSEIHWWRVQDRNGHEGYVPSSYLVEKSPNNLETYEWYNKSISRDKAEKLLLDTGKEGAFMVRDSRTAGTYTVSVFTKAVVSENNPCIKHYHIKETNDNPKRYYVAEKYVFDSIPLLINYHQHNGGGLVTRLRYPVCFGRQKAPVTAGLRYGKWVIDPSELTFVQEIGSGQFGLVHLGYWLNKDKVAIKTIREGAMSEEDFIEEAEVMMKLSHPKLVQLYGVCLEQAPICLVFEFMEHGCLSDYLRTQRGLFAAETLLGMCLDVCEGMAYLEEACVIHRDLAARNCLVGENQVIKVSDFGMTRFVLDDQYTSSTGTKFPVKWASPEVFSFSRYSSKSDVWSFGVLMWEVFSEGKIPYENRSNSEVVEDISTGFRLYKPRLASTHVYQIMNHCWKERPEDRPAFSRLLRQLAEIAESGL
How it is done: as §1

Experiment [7] addresses T7, JAK3 (Homo sapiens, UniProt P52333).
T7 construct: purchased Carna Biosciences
As to the method:
as §1

The target in experiment [8] is T8, EphB4 (Homo sapiens, UniProt P54760).
T8 construct: purchased Carna Biosciences
How it is done:
as §1

The target of experiment [9] is T9, CSK (Homo sapiens, UniProt P41240).
T9 construct: purchased Carna Biosciences
How it is done:
as §1

Experiment [10] deals with T10, KDR (Homo sapiens, UniProt P35968).
T10 construct: purchased Carna Biosciences
T10 sequence (P35968 20-1356): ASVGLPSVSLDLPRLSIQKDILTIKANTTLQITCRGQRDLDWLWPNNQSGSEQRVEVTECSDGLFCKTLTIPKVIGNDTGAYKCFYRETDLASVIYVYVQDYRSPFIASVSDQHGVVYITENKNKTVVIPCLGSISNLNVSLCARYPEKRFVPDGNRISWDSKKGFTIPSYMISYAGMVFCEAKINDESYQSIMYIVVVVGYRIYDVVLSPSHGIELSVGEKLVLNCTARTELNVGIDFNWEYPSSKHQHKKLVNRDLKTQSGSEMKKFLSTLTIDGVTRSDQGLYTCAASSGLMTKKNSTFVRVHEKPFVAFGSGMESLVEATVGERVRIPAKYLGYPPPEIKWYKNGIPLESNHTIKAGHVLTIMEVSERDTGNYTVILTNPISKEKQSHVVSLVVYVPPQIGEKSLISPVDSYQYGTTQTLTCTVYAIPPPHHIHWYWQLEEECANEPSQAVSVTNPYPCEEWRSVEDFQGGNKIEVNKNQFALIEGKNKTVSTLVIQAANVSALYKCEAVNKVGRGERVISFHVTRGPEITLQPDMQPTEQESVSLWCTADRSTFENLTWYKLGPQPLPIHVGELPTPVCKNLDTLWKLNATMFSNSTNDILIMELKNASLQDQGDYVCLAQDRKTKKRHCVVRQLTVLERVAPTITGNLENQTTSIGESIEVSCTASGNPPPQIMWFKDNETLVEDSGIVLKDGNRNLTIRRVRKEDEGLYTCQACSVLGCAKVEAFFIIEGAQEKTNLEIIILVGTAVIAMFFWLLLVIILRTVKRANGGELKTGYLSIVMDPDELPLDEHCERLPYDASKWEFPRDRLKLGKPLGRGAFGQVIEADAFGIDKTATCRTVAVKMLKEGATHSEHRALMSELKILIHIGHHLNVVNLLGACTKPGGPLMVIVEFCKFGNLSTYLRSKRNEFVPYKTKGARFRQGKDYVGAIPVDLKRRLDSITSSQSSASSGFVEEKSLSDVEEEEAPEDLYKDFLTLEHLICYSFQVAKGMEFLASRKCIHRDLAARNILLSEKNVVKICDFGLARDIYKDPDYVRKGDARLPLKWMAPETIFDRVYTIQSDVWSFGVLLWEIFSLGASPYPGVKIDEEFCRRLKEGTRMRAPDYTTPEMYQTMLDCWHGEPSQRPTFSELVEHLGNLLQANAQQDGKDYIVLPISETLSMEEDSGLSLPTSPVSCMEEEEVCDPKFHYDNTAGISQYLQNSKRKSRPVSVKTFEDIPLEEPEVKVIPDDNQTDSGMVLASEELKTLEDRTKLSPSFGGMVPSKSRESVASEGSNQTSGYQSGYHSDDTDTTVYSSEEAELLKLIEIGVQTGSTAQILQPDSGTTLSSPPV
How it is done: as §1

For experiment [11], the target named is T11, EphA2 (Homo sapiens, UniProt P29317).
T11 construct: purchased Carna Biosciences
How it is done: as §1

Experiment [12] deals with T12, MET (Homo sapiens, UniProt P08581).
T12 construct: purchased Carna Biosciences
How it is done: as §1

Experiment [13] has as its target T13, SRC (Homo sapiens, UniProt P12931).
T13 construct: purchased Carna Biosciences
How it is done:
as §1

The target of experiment [14] is T14, TYRO3 (Homo sapiens, UniProt Q06418).
T14 construct: purchased Carna Biosciences
As to the method:
as §1

The target in experiment [15] is T15, TRKA (Homo sapiens, UniProt P04629).
T15 construct: purchased Carna Biosciences
T15 sequence (P04629 33-796): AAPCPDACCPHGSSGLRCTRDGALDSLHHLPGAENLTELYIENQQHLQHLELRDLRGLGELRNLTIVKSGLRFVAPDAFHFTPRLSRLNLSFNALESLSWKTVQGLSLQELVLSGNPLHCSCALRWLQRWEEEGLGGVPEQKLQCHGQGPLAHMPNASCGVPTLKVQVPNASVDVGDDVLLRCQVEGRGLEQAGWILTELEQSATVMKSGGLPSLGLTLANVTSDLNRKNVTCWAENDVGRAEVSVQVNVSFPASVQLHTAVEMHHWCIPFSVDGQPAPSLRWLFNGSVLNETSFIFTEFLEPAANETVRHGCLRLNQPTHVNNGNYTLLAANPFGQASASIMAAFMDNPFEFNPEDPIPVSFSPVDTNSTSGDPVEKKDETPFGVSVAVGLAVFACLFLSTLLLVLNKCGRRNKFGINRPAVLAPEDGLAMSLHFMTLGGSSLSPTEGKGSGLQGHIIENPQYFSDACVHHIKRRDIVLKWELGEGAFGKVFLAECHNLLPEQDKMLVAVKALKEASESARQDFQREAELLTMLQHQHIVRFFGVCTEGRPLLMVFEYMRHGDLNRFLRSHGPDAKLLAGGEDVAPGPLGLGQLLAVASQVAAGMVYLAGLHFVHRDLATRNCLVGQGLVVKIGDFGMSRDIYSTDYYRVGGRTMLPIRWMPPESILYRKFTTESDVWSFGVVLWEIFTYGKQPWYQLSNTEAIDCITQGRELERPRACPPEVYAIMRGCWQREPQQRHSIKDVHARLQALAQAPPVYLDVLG
How it is done: as §1

Experiment [16] concerns the target T16, ABL (Homo sapiens, UniProt P00519).
T16 construct: purchased Carna Biosciences
How it is done:
as §1

The target in experiment [17] is T17, PDGFRa (Homo sapiens, UniProt P16234).
T17 construct: purchased Carna Biosciences
As to the method: as §1

Experiment [18] addresses T18, FGFR1 (Homo sapiens, UniProt P11362).
T18 construct: purchased Carna Biosciences
How it is done: as §1

The target in experiment [19] is T19, IGF1R (Homo sapiens, UniProt P08069).
T19 construct: purchased Carna Biosciences
How it is done: as §1

T7 sequence (P52333 whole entry): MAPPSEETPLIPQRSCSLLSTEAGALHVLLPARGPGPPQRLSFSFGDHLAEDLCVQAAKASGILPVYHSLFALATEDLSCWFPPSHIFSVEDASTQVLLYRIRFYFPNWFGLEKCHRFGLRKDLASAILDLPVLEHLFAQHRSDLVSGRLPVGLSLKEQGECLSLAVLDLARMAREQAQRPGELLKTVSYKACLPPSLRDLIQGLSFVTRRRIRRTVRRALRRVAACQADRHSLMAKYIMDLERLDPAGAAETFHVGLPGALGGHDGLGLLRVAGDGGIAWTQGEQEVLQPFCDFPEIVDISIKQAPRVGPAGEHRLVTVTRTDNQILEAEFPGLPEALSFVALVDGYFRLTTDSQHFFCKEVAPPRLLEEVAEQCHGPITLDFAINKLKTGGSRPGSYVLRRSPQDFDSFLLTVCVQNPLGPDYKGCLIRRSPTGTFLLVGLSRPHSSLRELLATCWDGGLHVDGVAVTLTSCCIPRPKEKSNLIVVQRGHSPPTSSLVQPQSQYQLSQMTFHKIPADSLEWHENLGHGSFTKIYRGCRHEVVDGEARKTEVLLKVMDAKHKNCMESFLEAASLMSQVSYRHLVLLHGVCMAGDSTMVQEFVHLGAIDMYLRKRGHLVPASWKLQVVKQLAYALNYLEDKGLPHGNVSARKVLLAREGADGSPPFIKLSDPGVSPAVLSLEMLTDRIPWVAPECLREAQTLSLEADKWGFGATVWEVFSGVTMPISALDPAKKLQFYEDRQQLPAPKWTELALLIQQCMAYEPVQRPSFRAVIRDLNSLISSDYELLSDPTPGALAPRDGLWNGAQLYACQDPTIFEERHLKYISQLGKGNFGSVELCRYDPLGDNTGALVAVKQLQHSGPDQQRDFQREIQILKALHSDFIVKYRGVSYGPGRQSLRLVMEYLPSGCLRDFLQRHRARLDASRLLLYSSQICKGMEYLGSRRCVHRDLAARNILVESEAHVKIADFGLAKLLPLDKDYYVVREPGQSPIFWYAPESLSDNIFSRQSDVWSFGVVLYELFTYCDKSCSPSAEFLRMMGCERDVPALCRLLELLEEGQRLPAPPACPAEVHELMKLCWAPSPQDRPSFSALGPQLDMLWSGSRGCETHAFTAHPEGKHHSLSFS
T16 sequence (P00519 whole entry): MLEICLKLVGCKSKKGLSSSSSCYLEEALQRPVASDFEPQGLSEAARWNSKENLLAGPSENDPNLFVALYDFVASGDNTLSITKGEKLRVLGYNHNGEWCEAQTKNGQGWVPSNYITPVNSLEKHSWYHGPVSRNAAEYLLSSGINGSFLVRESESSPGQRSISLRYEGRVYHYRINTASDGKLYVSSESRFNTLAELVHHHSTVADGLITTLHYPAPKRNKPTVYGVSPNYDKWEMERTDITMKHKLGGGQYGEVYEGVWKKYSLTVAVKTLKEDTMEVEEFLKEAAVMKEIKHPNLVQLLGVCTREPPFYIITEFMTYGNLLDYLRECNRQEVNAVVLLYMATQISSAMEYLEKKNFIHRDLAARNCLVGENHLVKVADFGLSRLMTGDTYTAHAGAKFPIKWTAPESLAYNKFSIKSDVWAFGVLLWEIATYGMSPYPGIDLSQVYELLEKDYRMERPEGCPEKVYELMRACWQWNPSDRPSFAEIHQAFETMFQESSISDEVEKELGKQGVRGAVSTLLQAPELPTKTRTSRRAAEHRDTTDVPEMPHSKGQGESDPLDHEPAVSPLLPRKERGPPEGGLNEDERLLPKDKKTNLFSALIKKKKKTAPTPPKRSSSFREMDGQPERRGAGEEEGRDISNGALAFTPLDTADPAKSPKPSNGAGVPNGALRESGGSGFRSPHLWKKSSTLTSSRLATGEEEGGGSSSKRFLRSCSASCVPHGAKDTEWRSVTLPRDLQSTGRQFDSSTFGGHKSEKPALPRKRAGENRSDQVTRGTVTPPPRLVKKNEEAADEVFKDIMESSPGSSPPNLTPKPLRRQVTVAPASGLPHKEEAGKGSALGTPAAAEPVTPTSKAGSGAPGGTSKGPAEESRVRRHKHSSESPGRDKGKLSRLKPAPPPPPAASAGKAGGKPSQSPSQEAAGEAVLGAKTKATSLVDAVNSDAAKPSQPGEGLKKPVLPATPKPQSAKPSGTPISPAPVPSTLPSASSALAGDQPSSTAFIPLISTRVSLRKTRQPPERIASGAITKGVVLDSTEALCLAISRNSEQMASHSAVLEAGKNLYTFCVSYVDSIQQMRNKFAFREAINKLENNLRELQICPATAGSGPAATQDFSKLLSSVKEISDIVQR

Consider `CC(=O)Nc1ccc(C(=O)Nc2sc(Nc3ccccc3)nc2C(N)=O)cc1` [Compound 1, 5-(4-acetamidobenzamido)-2-(phenylamino)thiazole-4-carboxamide], for which the IC50 in experiment [1] was more than 300 nM; in experiment [2], 95 nM; in experiment [3] it was more than 300 nM; in experiment [4] it was more than 300 nM; in experiment [5], more than 300 nM; in [6], more than 300 nM. In addition, the concentration for half-maximal inhibition (IC50) was more than 300 nM in experiment [7]; more than 300 nM in experiment [8]; more than 300 nM in experiment [9]; 59 nM in experiment [10]; more than 300 nM in experiment [11]; more than 300 nM in experiment [12]. Moreover, the IC50 in [13] is more than 300 nM; in experiment [14], more than 300 nM; in [15], more than 300 nM; in [16] it was 290 nM; in experiment [17], 150 nM; in experiment [18], more than 300 nM. For the same compound, in [19], the IC50 was more than 300 nM.

In general, IC50 refers to the concentration needed to halve the response being measured. Low readings indicate greater potency, high ones weaker potency.
